Data on 3 compounds can be found in US20190086410A1, “FUNCTION-BASED PROBES FOR ENVIRONMENTAL MICROBIOME ANALYSIS AND METHODS OF MAKING AND USING THE SAME” (Battelle Memorial Institute, priority 2017, published 2019).

The test system of experiment [1] is β-glucuronidases from Escherichia coli, Streptococcus agalactiae, and Clostridium perfringens. Format: biochemical. Particulars: wild-type enzymes; fluorescence SDS-PAGE.
The target in experiment [2] is β-glucuronidase (uidA) (Escherichia coli, UniProt P05804). The format is cell-based, E. coli.
For experiment [3], the system named is β-glucuronidase (uidA). Format: cell-based, E. coli. Particulars: ΔuidA strain lacking β-glucuronidase.
The test system of a further experiment is WT E. coli. Kind of experiment: Whole-cell probe labeling coupled to flow cytometry/FACS, E. coli only. Format: cell-based. The following applies: 50 μM. In general terms: In flow cytometry, cells or beads pass a laser one at a time.
In experiment [4] the test system is Lactobacillus plantarum, which lacks a β-glucuronidase. Put plainly: Whole-cell probe labeling coupled to flow cytometry/FACS, L. plantarum only. The format is cell-based. Particulars: 50 μM.
In experiment [5] the test system is mix of WT E. coli and L. plantarum. Put plainly: Whole-cell probe labeling coupled to flow cytometry/FACS, mix of E. coli and L. plantarum. The format is cell-based, Lactobacillus plantarum.
For experiment [6], the system named is glucuronidase activity in the gut microbiome. The format is in vivo, mouse. The following applies: in 4 of 5 sets of littermates; vancomycin in water vs water. As to the method: Microbial cells from the mouse gut were suspended in PBS with a protease inhibitor (COMPLETE® EDTA-free Protease Inhibitor, ROCHE®) and lysed via bead beating (BULLET BLENDER®). β-glucuronidase assays were conducted as previously described with modifications. Briefly, 4-methylumbelliferyl-β-D-glucuronide (4-MUG; 1 mM) was added to 50 μL lysate (0.9 μg total protein) for a final concentration of 500 μM. At specific time points (0-240 minutes), 10 μL aliquots of each reaction were added to 90 μL of 0.1 M […] (pH=10) and stored in the dark. Fluorescence was measured using a plate reader (MOLECULAR BIOSCIENCES®), and the amount of hydrolyzed substrate was calculated relative to a standard curve. The rate (mM/s) was determined via linear regression (GRAPHPAD® PRISM®), and activity was calculated as rate per μg protein. Values from three independent replicates were averaged, and activity was compared across biological replicates (n=5) using a ratio paired t-test.
Pairs of littermates were exposed to water with or without vancomycin, an antibiotic known to target Firmicutes in the gut microbiota (FIG. 12). As Firmicutes made up most the probe-positive taxa in the non-treated mice (FIG. 13), vancomycin treatment may shift the GlcA-ABP+ population composition. […] Accordingly, the intensity of GlcA-ABP+ labeling decreased as well (FIG. 14B).

In a further experiment the test system is gut microbiota. Format: in vivo, mouse.
Where [7] appears, read: vancomycin-treated vs untreated littermates.

Sequence of β-glucuronidase (uidA) (Escherichia coli, UniProt P05804) (P05804 whole entry): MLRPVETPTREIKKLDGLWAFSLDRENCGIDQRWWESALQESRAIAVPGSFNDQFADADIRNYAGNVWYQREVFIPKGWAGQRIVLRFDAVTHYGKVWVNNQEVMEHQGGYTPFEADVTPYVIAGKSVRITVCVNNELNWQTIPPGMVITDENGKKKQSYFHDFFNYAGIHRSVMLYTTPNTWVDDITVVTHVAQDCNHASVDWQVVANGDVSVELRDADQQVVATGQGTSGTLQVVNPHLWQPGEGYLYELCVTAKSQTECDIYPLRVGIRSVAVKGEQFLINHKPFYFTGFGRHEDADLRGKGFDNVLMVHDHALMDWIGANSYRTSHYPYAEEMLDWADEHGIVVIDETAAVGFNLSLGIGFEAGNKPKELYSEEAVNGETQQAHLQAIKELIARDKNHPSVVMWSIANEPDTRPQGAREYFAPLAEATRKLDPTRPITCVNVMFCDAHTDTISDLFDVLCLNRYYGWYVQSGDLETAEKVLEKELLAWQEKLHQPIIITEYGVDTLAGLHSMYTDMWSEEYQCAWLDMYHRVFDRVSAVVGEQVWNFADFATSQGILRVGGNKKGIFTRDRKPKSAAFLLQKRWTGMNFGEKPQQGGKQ

`C#CCCCC(=O)Nc1ccc(OC2OC(C(=O)O)C(O)C(O)C2O)c(C(F)F)c1` (stereo not drawn) [GlcA-ABP, 6-(2-(difluoromethyl)-4-(hex-5-ynamido)phenoxy)-3,4,5-trihydroxytetrahydro-2H-pyran-2-carboxylic acid]: the “GlcA-ABP labeling intensity of purified β-glucuronidases” value in experiment [1] is on record as “corresponded with the catalytic efficiency of these enzymes”. At β-glucuronidase (uidA) [2] (SDS-PAGE and flow cytometry), the “labeling in ΔuidA complemented with uidA” value is “restoration of labeling”. Besides, at β-glucuronidase (uidA) [2] (WT E. coli, SDS-PAGE), the “labeling of β-glucuronidase in wild type (WT) E. coli” value was “Dose-dependent labeling”. Further, the “labeling in ΔuidA E. coli” value with β-glucuronidase (uidA) [3] is given as “no labeling”. Further, the “cell labeling, flow cytometry” value with WT E. coli is “labeling was observed”; in experiment [4] it was “none”; in experiment [5] (mixture of E. coli and L. plantarum, 50 μM), “an intermediate amount”.
Regarding `C#CCCCCNC(=O)CI` [IAA, iodoacetamide alkyne, reference compound], the “cell labeling by positive control probe, flow cytometry” value in experiment [5] (E. coli only, L. plantarum only, or mix, 10 μM) is “all cells were labeled”.
With `CN[C@H](CC(C)C)C(=O)N[C@H]1C(=O)N[C@@H](CC(N)=O)C(=O)N[C@H]2C(=O)N[C@H]3C(=O)N[C@H](C(=O)N[C@H](C(=O)O)c4cc(O)cc(O)c4-c4cc3ccc4O)[C@H](O)c3ccc(c(Cl)c3)Oc3cc2cc(c3O[C@@H]2O[C@H](CO)[C@@H](O)[C@H](O)[C@H]2O[C@H]2C[C@](C)(N)[C@H](O)[C@H](C)O2)Oc2ccc(cc2Cl)[C@H]1O` [Vancomycin, vancomycin], the “glucuronidase activity in gut microbiome after treatment” value in experiment [6] is given as “reduced, but did not eliminate”. In the experiment with gut microbiota (setting [7]), the “relative abundance of Firmicutes” value is “dramatically decreased”; the “relative abundance of Proteobacteria, Verrucomicrobia, and Bacteroidetes” value is “corresponding increase”. Moreover, in the experiment with gut microbiota (vancomycin-treated vs untreated mice), the “intensity of GlcA-ABP+ labeling after treatment” value is listed as “decreased”.
